Experimental data taken from patent US20260165323A1, “USE OF STROBILURIN TYPE COMPOUNDS FOR COMBATING PHYTOPATHOGENIC FUNGI CONTAINING AN AMINO ACID SUBSTITUTION F129L IN THE MITOCHONDRIAL CYTOCHROME B PROTEIN CONFERRING RESISTANCE TO QO […]” (priority 2022, published 2026).

tested on: Puccinia recondita; assay: Use Example 4: preventative control of brown rust on wheat (PUCCRT P7); type: in vivo; details: inoculated seven days after spraying, 4 ppm, % diseased leaf area
Protocol: (§1) The compound was dissolved in a mixture of acetone and/or dimethylsulfoxide and the wetting agent/emulsifier Wettol, which is based on ethoxylated alkylphenoles, in a ratio (volume) solvent-emulsifier of 99 to 1 to give a total volume of 5 ml. Subsequently, water was added to total volume of 100 ml. This stock solution was then diluted with the described solvent-emulsifier-water mixture to the final concentration given in the tables below.
Use Example 4. Preventative Control of Brown Rust on Wheat Caused by Puccinia recondita (PUCCRT P7)
The first two developed leaves of potted wheat seedling were sprayed to run-off with previously described spray solution, containing the concentration of active ingredient or their mixture as described below. Seven days later the plants were dusted with spores of Puccinia recondita. To ensure the success of the artificial inoculation, the plants were transferred to a humid chamber without light and a relative humidity of 95 to 99% and 20 to 24° C. for 24 h. Then the trial plants were cultivated for 9 to 11 days in a greenhouse chamber at 20 to 24° C. and a relative humidity between 65 and 70%. The extent of fungal attack on the leaves was visually assessed as % diseased leaf area, the disease level of untreated controls was usually between 80 and 100%.

Row | Structure (SMILES) | % PUCCRT Disease level P7 at 4 ppm [%]
1 | CCOC/C(=N\OCc1c(Cl)cccc1/C(=N\OC)C(=O)NC)c1ccccc1F [compound 22] | 53
2 | COC/C(=N\OCc1c(Cl)cccc1/C(=N\OC)C(=O)OC)c1ccccc1F [compound 19] | 53
3 | CO/C=C(/C(=O)OC)c1cccc(Cl)c1CO/N=C(\COC)c1ccc(Cl)c(Cl)c1 [compound 71] | 4
4 | CNC(=O)/C(=N/OC)c1cccc(Cl)c1CO/N=C(\COC)c1ccccc1Cl [compound 50] | 70
5 | CNC(=O)/C(=N/OC)c1cccc(Cl)c1CO/N=C(\COC)c1ccc(F)cc1F [compound 84] | 35
6 | CO/C=C(/C(=O)OC)c1cccc(Cl)c1CO/N=C(\COC)c1cccc(OC)c1 [compound 121] | 32

same assay, conditions: inoculated seven days after spraying, 16 ppm, % diseased leaf area

Row | Structure (SMILES) | % PUCCRT Disease level P7 at 16 ppm [%]
7 | CCOC/C(=N\OCc1c(Cl)cccc1/C(=N\OC)C(=O)NC)c1ccccc1F [compound 22] | 28
8 | COC/C(=N\OCc1c(Cl)cccc1/C(=N\OC)C(=O)OC)c1ccccc1F [compound 19] | 15
9 | CO/C=C(/C(=O)OC)c1cccc(Cl)c1CO/N=C(\COC)c1ccc(Cl)c(Cl)c1 [compound 71] | 3
10 | CNC(=O)/C(=N/OC)c1cccc(Cl)c1CO/N=C(\COC)c1ccccc1Cl [compound 50] | 33
11 | CNC(=O)/C(=N/OC)c1cccc(Cl)c1CO/N=C(\COC)c1ccc(F)cc1F [compound 84] | 5
12 | CO/C=C(/C(=O)OC)c1cccc(Cl)c1CO/N=C(\COC)c1cccc(OC)c1 [compound 121] | 4

tested on: Phakopsora pachyrhizi containing the amino acid substitution F129L in the mitochondrial cytochrome b protein; assay: Use Example 1: protective control of soybean rust on soybeans (PHAKPA P2); type: in vivo; details: inoculated 2 days after spraying, 4 ppm, % diseased leaf area
Protocol: as §1
Use Example 1. Protective Control of Soybean Rust on Soybeans Caused by Phakopsora pachyrhizi (PHAKPA P2)
(§2) Leaves of potted soybean seedlings were sprayed to run-off with the previously described spray solution, containing the concentration of active ingredient or their mixture as described below. The plants were allowed to air-dry. The trial plants were cultivated for 2 days in a greenhouse chamber at 23-27° C. and a relative humidity between 60 and 80%. Then the plants were inoculated with spores of Phakopsora pachyrhizi. The strain used contains the amino acid substitution F129L in the mitochondrial cytochrome b protein conferring resistance to Qo inhibitors. To ensure the success the artificial inoculation, the plants were transferred to a humid chamber with a relative humidity of about 95% and 20 to 24° C. for 24 hr. The trial plants were cultivated for up to 14 days in a greenhouse chamber at 23 to 27° C. and a relative humidity between 60 and 80%. The extent of fungal attack on the leaves was visually assessed as % diseased leaf area, the disease level of untreated controls was usually higher than 85%.

Row | Structure (SMILES) | % PHAKPA (F129L) Disease level P2 at 4 ppm [%]
13 | CCOC/C(=N\OCc1c(Cl)cccc1/C(=N\OC)C(=O)NC)c1ccccc1F [compound 22] | 15
14 | COC/C(=N\OCc1c(Cl)cccc1/C(=N\OC)C(=O)OC)c1ccccc1F [compound 19] | 33
15 | CO/C=C(/C(=O)OC)c1cccc(Cl)c1CO/N=C(\COC)c1ccc(Cl)c(Cl)c1 [compound 71] | 31
16 | CNC(=O)/C(=N/OC)c1cccc(Cl)c1CO/N=C(\COC)c1ccccc1Cl [compound 50] | 92
17 | CNC(=O)/C(=N/OC)c1cccc(Cl)c1CO/N=C(\COC)c1ccc(F)cc1F [compound 84] | 5
18 | CO/C=C(/C(=O)OC)c1cccc(Cl)c1CO/N=C(\COC)c1cccc(OC)c1 [compound 121] | 4

same assay, conditions: inoculated 2 days after spraying, 16 ppm, % diseased leaf area

Row | Structure (SMILES) | % PHAKPA (F129L) Disease level P2 at 16 ppm [%]
19 | CCOC/C(=N\OCc1c(Cl)cccc1/C(=N\OC)C(=O)NC)c1ccccc1F [compound 22] | 4
20 | COC/C(=N\OCc1c(Cl)cccc1/C(=N\OC)C(=O)OC)c1ccccc1F [compound 19] | 6
21 | CO/C=C(/C(=O)OC)c1cccc(Cl)c1CO/N=C(\COC)c1ccc(Cl)c(Cl)c1 [compound 71] | 4
22 | CNC(=O)/C(=N/OC)c1cccc(Cl)c1CO/N=C(\COC)c1ccccc1Cl [compound 50] | 32
23 | CNC(=O)/C(=N/OC)c1cccc(Cl)c1CO/N=C(\COC)c1ccc(F)cc1F [compound 84] | 0
24 | CO/C=C(/C(=O)OC)c1cccc(Cl)c1CO/N=C(\COC)c1cccc(OC)c1 [compound 121] | 0

tested on: Puccinia recondita; assay: Use Example 3: curative control of brown rust on wheat (PUCCRT K4); type: in vivo; details: 4 ppm, % diseased leaf area
Protocol: as §1
Use Example 3. Curative Control of Brown Rust on Wheat Caused by Puccinia recondita (PUCCRT K4)
The first two developed leaves of potted wheat seedling were dusted with spores of Puccinia recondita. To ensure the success the artificial inoculation, the plants were transferred to a humid chamber without light and a relative humidity of 95 to 99% and 20 to 24° C. for 24 h. The next 3 days the plants were cultivated in a greenhouse chamber at 20 to 24° C. and a relative humidity between 65 and 70%. Then the plants were sprayed to run-off with previously described spray solution, containing the concentration of active ingredient or their mixture as described below. The plants were allowed to air-dry. Then the trial plants were cultivated for 5 to 7 days in a greenhouse chamber at 20 to 24° C. and a relative humidity between 65 and 70%. The extent of fungal attack on the leaves was visually assessed as % diseased leaf area, the disease level of untreated controls was usually between 80 and 100%.

Row | Structure (SMILES) | % PUCCRT Disease level K4 at 4 ppm [%]
25 | CCOC/C(=N\OCc1c(Cl)cccc1/C(=N\OC)C(=O)NC)c1ccccc1F [compound 22] | 80
26 | COC/C(=N\OCc1c(Cl)cccc1/C(=N\OC)C(=O)OC)c1ccccc1F [compound 19] | 87
27 | CO/C=C(/C(=O)OC)c1cccc(Cl)c1CO/N=C(\COC)c1ccc(Cl)c(Cl)c1 [compound 71] | 34
28 | CNC(=O)/C(=N/OC)c1cccc(Cl)c1CO/N=C(\COC)c1ccccc1Cl [compound 50] | 75
29 | CNC(=O)/C(=N/OC)c1cccc(Cl)c1CO/N=C(\COC)c1ccc(F)cc1F [compound 84] | 58
30 | CO/C=C(/C(=O)OC)c1cccc(Cl)c1CO/N=C(\COC)c1cccc(OC)c1 [compound 121] | 5

same assay, conditions: 16 ppm, % diseased leaf area

Row | Structure (SMILES) | % PUCCRT Disease level K4 at 16 ppm [%]
31 | CCOC/C(=N\OCc1c(Cl)cccc1/C(=N\OC)C(=O)NC)c1ccccc1F [compound 22] | 63
32 | COC/C(=N\OCc1c(Cl)cccc1/C(=N\OC)C(=O)OC)c1ccccc1F [compound 19] | 80
33 | CO/C=C(/C(=O)OC)c1cccc(Cl)c1CO/N=C(\COC)c1ccc(Cl)c(Cl)c1 [compound 71] | 3
34 | CNC(=O)/C(=N/OC)c1cccc(Cl)c1CO/N=C(\COC)c1ccccc1Cl [compound 50] | 72
35 | CNC(=O)/C(=N/OC)c1cccc(Cl)c1CO/N=C(\COC)c1ccc(F)cc1F [compound 84] | 9
36 | CO/C=C(/C(=O)OC)c1cccc(Cl)c1CO/N=C(\COC)c1cccc(OC)c1 [compound 121] | 1

tested on: Phakopsora pachyrhizi containing the amino acid substitution F129L in the mitochondrial cytochrome b protein; assay: Use Example 2: protective control of soybean rust on soybeans (PHAKPA P6); type: in vivo; details: inoculated six days after spraying, 4 ppm, % diseased leaf area
Protocol: as §1
Use Example 2. Protective Control of Soybean Rust on Soybeans Caused by Phakopsora Pachyrhizi (PHAKPA P6)
as §2, with “active ingredient as described” for “active ingredient or their mixture as described”, “cultivated for six days in” for “cultivated for 2 days in”, “95% and 23 to 27°” for “95% and 20 to 24°”, “23 to 27° C. for” for “20 to 24° C. for”

Row | Structure (SMILES) | % PHAKPA (F129L) Disease level P6 at 4 ppm [%]
37 | CCOC/C(=N\OCc1c(Cl)cccc1/C(=N\OC)C(=O)NC)c1ccccc1F [compound 22] | 40
38 | COC/C(=N\OCc1c(Cl)cccc1/C(=N\OC)C(=O)OC)c1ccccc1F [compound 19] | 77
39 | CO/C=C(/C(=O)OC)c1cccc(Cl)c1CO/N=C(\COC)c1ccc(Cl)c(Cl)c1 [compound 71] | 28
40 | CNC(=O)/C(=N/OC)c1cccc(Cl)c1CO/N=C(\COC)c1ccccc1Cl [compound 50] | 87
41 | CNC(=O)/C(=N/OC)c1cccc(Cl)c1CO/N=C(\COC)c1ccc(F)cc1F [compound 84] | 2
42 | CO/C=C(/C(=O)OC)c1cccc(Cl)c1CO/N=C(\COC)c1cccc(OC)c1 [compound 121] | 6

same assay, conditions: inoculated six days after spraying, 16 ppm, % diseased leaf area

Row | Structure (SMILES) | % PHAKPA (F129L) Disease level P6 at 16 ppm [%]
43 | CCOC/C(=N\OCc1c(Cl)cccc1/C(=N\OC)C(=O)NC)c1ccccc1F [compound 22] | 4
44 | COC/C(=N\OCc1c(Cl)cccc1/C(=N\OC)C(=O)OC)c1ccccc1F [compound 19] | 31
45 | CO/C=C(/C(=O)OC)c1cccc(Cl)c1CO/N=C(\COC)c1ccc(Cl)c(Cl)c1 [compound 71] | 7
46 | CNC(=O)/C(=N/OC)c1cccc(Cl)c1CO/N=C(\COC)c1ccccc1Cl [compound 50] | 36
47 | CNC(=O)/C(=N/OC)c1cccc(Cl)c1CO/N=C(\COC)c1ccc(F)cc1F [compound 84] | 0
48 | CO/C=C(/C(=O)OC)c1cccc(Cl)c1CO/N=C(\COC)c1cccc(OC)c1 [compound 121] | 0
